Test results: US10947242B2, “[1,2,4]triazolo[1,5and#8208;A]pyrimidine compounds as PDE2 inhibitors” (Janssen Pharmaceutica NV, priority 2016, dated 2021)
Like-named read-outs stand apart in the source and are kept apart here.

Key:
Assay type in all cases: biochemical
[1] = target: T1, Human recombinant PDE10A (hPDE10A) (Homo sapiens, UniProt Q9Y233); experiment: In vitro assay PDE10A, human clone (SPA, 3H-cAMP hydrolysis); details: human clone (h), default; for Emax: read-out: hPDE10A2 Emax; for IC50: read-out: hPDE10A2 pIC50 (converted)
T1 construct: His tag (inferred from metal chelate purification); made in house; host or cells: Sf9 insect cells (baculovirus)
T1 sequence (Q9Y233 267-1055): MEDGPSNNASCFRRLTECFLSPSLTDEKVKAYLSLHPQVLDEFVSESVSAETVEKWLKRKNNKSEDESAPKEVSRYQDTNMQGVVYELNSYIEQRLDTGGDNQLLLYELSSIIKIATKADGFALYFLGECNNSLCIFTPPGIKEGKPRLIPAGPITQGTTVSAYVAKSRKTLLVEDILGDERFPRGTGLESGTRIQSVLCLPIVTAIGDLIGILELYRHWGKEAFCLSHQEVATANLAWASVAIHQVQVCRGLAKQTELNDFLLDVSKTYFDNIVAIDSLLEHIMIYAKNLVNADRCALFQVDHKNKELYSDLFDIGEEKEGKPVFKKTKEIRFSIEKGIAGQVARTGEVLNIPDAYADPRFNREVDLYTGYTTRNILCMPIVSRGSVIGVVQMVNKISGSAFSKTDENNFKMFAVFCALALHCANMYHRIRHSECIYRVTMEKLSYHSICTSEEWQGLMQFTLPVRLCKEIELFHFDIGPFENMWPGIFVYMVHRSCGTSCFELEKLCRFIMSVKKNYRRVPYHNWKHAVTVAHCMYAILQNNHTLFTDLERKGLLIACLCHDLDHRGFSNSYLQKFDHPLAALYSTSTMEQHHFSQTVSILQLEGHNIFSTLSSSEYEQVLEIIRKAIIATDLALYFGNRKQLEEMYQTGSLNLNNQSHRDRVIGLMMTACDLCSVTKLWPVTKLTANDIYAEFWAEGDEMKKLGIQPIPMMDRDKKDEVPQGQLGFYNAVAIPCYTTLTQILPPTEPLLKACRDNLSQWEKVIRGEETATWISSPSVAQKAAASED
Outline: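 Hydrolysis of 3H-cAMP (60 nM cAMP, 0.008 μCi tracer) proceeded for 60 min at room temperature, with the product detected by SPA bead scintillation counting. The enzyme was hPDE10A from baculovirus-infected Sf9 cells in Tris pH 7.8 buffer with MgCl2 and EGTA, and compounds were at 1% DMSO final. Blanks lacked enzyme.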

[2] = target: T2, Human recombinant PDE3A (hPDE3A) (Homo sapiens, UniProt Q14432); experiment: In vitro assay PDE3A (SPA, 3H-cAMP hydrolysis); details: for IC50: hPDE3B pIC50, read-out: pIC50 (converted); for Emax: read-out: hPDE3B Emax, read-out: Emax;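 as to all read-outs here: the method names PDE3A and the table heading PDE3B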
T2 construct: purchased Scottish Biomedical; host or cells: Sf9 insect cells
T2 sequence (Q14432 whole entry): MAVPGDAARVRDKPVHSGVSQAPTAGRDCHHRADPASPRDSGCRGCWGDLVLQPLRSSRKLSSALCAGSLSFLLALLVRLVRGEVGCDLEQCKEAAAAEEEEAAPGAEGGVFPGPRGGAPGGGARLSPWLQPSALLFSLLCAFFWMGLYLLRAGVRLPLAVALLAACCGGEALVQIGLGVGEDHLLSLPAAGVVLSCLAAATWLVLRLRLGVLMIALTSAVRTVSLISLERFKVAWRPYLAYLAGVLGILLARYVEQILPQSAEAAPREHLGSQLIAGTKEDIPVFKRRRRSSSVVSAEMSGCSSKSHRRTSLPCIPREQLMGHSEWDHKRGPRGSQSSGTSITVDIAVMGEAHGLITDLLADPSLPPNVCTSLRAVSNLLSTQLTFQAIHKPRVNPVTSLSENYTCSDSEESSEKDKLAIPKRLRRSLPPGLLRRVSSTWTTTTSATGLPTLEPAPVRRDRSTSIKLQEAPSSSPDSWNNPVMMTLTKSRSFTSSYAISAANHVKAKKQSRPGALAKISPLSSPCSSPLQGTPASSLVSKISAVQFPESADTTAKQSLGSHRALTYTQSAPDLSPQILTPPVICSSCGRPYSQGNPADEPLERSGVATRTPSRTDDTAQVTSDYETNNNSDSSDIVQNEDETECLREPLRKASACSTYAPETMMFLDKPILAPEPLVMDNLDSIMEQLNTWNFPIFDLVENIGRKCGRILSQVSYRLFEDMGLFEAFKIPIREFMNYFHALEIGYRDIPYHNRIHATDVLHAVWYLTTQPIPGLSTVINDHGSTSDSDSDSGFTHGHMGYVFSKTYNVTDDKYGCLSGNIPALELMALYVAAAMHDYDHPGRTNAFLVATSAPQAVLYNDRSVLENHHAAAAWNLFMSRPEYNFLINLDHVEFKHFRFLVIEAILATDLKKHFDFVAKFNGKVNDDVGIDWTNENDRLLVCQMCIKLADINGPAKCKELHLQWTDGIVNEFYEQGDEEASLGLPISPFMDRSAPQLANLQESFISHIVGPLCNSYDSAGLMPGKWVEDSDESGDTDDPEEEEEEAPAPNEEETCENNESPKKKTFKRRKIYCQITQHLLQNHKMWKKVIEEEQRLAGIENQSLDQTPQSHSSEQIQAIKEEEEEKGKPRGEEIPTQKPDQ
Outline: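 Radiometric SPA measuring [3H]-cAMP hydrolysis (0.4 μM cAMP, 2.4 μCi/ml) over 60 min at room temperature, in Tris pH 7.8 buffer with MgCl2 and EGTA, 1% DMSO. Enzyme: recombinant human brain PDE3A expressed in Sf9 cells, used as partially purified lysate. Counts compared with enzyme-free blanks and vehicle controls.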

[3] = target: T3, Human recombinant PDE2A (hPDE2A) (Homo sapiens, UniProt O00408); experiment: In vitro assay PDE2A (SPA, 3H-cGMP hydrolysis); details: for Emax: read-out: hPDE2A Emax; for IC50: read-out: hPDE2A pIC50 (converted)
T3 construct: His tag (inferred from metal chelate purification); made in house; host or cells: Sf9 insect cells (baculovirus)
T3 sequence (O00408 whole entry): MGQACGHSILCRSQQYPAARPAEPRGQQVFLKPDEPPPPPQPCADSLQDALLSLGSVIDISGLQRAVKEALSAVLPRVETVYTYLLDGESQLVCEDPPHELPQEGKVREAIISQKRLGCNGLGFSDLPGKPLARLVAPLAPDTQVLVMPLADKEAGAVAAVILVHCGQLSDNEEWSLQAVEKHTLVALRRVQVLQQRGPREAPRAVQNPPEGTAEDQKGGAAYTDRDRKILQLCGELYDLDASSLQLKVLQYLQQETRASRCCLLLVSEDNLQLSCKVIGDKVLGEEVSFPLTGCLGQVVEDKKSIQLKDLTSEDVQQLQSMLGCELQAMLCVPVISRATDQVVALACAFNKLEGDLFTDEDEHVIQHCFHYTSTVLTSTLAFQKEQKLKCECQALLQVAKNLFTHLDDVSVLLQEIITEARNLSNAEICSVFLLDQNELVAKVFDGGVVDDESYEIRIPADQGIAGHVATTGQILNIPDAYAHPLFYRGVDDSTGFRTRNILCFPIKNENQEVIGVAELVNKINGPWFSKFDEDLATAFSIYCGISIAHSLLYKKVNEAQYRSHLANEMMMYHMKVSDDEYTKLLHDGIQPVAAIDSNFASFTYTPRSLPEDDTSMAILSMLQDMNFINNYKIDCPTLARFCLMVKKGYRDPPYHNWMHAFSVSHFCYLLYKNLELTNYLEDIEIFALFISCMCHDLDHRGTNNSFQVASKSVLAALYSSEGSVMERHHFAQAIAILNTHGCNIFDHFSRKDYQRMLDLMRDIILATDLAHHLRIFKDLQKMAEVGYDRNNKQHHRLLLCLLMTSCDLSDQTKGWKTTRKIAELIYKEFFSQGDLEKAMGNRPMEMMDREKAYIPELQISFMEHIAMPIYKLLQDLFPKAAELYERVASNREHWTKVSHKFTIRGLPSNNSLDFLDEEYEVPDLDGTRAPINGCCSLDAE

[4] = human recombinant PDE2A, 10 μM cGMP substrate

SMILES	Emax [1]	IC50 [1]	IC50 [2]	Emax [2]	Emax [3]	IC50 [3]	IC50 [3, 4]	Emax ([3]; human recombinant PDE2A)
Cc1nc2ccncc2cc1C(=O)N1CC[C@@H](C)[C@H](c2cc(C(F)F)nc3ncnn23)C1 [Compound 151]	85%	1380 nM	> 10000 nM	11%	100%	40.7 nM	–	–
Cc1cc(C(=O)N2CC[C@@H](C)[C@H](c3cc(C(F)F)nc4ncnn34)C2)on1 [Compound 152]	80%	2040 nM	> 10000 nM	30%	99%	41.7 nM	41.7 nM	99%
C[C@@H]1CCN(C(=O)c2ccc(Br)cn2)C[C@H]1c1cc(C(F)F)nc2ncnn12 [Compound 153]	89%	1070 nM	3090 nM	76%	100%	43.7 nM	43.7 nM	100%
C[C@@H]1CCN(C(=O)c2ccc(Cl)cn2)C[C@H]1c1cc(C(F)F)nc2ncnn12 [Compound 154]	79%	2750 nM	> 10000 nM	50%	100%	51.3 nM	51.3 nM	100%
C[C@@H]1CCN(C(=O)c2ccncc2F)C[C@H]1c1cc(C(F)F)nc2ncnn12 [Compound 155]	72%	2950 nM	> 10000 nM	37%	98%	53.7 nM	53.7 nM	98%
Cc1ncoc1C(=O)N1CC[C@@H](C)[C@H](c2cc(C(F)F)nc3ncnn23)C1 [Compound 156]	81%	2000 nM	> 10000 nM	19%	100%	58.9 nM	58.9 nM	100%
Cc1cc(C(=O)N2CC[C@@H](C)[C@H](c3cc(C(F)F)nc4ncnn34)C2)no1 [Compound 157]	75%	2570 nM	> 10000 nM	33%	99%	60.3 nM	60.3 nM	99%
C[C@@H]1CCN(C(=O)c2csc(N)n2)C[C@H]1c1cc(C(F)F)nc2ncnn12 [Compound 158]	78%	2140 nM	> 10000 nM	19%	100%	64.6 nM	64.6 nM	100%
Cc1c(C(=O)N2CC[C@@H](C)[C@H](c3cc(C(F)F)nc4ncnn34)C2)ccnc1Cl [Compound 159]	75%	3240 nM	> 10000 nM	42%	100%	72.4 nM	72.4 nM	100%
Cc1cnoc1C(=O)N1CC[C@@H](C)[C@H](c2cc(C(F)F)nc3ncnn23)C1 [Compound 160]	88%	1020 nM	> 10000 nM	34%	99%	72.4 nM	72.4 nM	99%
Cc1nc(C(=O)N2CC[C@@H](C)[C@H](c3cc(C(F)F)nc4ncnn34)C2)c(C(F)(F)F)o1 [Compound 161]	74%	3090 nM	> 10000 nM	11%	98%	74.1 nM	74.1 nM	98%
C[C@@H]1CCN(C(=O)c2cccc(N)n2)C[C@H]1c1cc(C(F)F)nc2ncnn12 [Compound 162]	72%	4270 nM	> 10000 nM	26%	97%	74.1 nM	74.1 nM	97%
C[C@@H]1CCN(C(=O)c2cc(C#N)ccn2)C[C@H]1c1cc(C(F)F)nc2ncnn12 [Compound 163]	74%	3240 nM	> 10000 nM	12%	98%	89.1 nM	89.1 nM	98%
C[C@@H]1CCN(C(=O)c2cncn2C)C[C@H]1c1cc(C(F)F)nc2ncnn12 [Compound 164]	82%	1950 nM	> 10000 nM	22%	100%	89.1 nM	89.1 nM	100%
COc1ccc(C(C)(C)C)cc1C(=O)N1CC[C@@H](C)[C@H](c2cc(C(F)F)nc3ncnn23)C1 [Compound 165]	78%	3470 nM	> 10000 nM	36%	100%	93.3 nM	93.3 nM	100%
C[C@@H]1CCN(C(=O)c2cc3n(n2)CCO3)C[C@H]1c1cc(C(F)F)nc2ncnn12 [Compound 166]	81%	2240 nM	> 10000 nM	32%	98%	93.3 nM	93.3 nM	98%
C[C@@H]1CCN(C(=O)c2ccc(C(F)(F)F)nc2)C[C@H]1c1cc(C(F)F)nc2ncnn12 [Compound 167]	81%	2000 nM	5370 nM	64%	97%	97.7 nM	97.7 nM	97%
C[C@@H]1CCN(C(=O)c2ccc(O)c(F)c2)C[C@H]1c1cc(C(F)F)nc2ncnn12 [Compound 168]	99%	53.7 nM	5130 nM	66%	98%	3.98 nM	3.98 nM	98%
COc1ccc2nc(C(=O)N3CC[C@@H](C)[C@H](c4cc(C(F)F)nc5ncnn45)C3)sc2c1 [Compound 171]	97%	355 nM	1150 nM	93%	99%	11.7 nM	11.7 nM	99%
COc1ccc2c(c1)cc(C(=O)N1CC[C@@H](C)[C@H](c3cc(C(F)F)nc4ncnn34)C1)n2C [Compound 172]	100%	32.4 nM	269 nM	98%	101%	4.57 nM	4.57 nM	101%
C[C@@H]1CCN(C(=O)c2cnc(O)c(Cl)c2)C[C@H]1c1cc(C(F)F)nc2ncnn12 [Compound 173]	96%	302 nM	> 10000 nM	31%	101%	13.8 nM	13.8 nM	101%
C[C@@H]1CCN(C(=O)c2cnc(N(C)C)nc2)C[C@H]1c1cc(C(F)F)nc2ncnn12 [Compound 174]	88%	575 nM	1320 nM	85%	99%	5.25 nM	5.25 nM	99%
C[C@@H]1CCN(C(=O)c2cccc(C(C)(C)C#N)c2)C[C@H]1c1cc(C(F)F)nc2ncnn12 [Compound 175]	98%	141 nM	6030 nM	71%	100%	4.9 nM	4.9 nM	100%
C[C@@H]1CCN(C(=O)c2cccc3ncoc23)C[C@H]1c1cc(C(F)F)nc2ncnn12 [Compound 176]	88%	891 nM	8710 nM	56%	100%	9.12 nM	9.12 nM	100%
C[C@@H]1CCN(C(=O)c2cnn(C)c2)C[C@H]1c1cc(C(F)F)nc2ncnn12 [Compound 177]	93%	457 nM	> 10000 nM	21%	99%	9.55 nM	9.55 nM	99%
C[C@@H]1CCN(C(=O)c2cccc3c2ncn3C)C[C@H]1c1cc(C(F)F)nc2ncnn12 [Compound 178]	92%	794 nM	7410 nM	62%	101%	13.5 nM	13.5 nM	101%
C[C@@H]1CCN(C(=O)c2cnc3n2CCCC3)C[C@H]1c1cc(C(F)F)nc2ncnn12 [Compound 179]	90%	537 nM	> 10000 nM	32%	100%	21.4 nM	21.4 nM	100%
C[C@@H]1CCN(C(=O)c2ccc(Cl)s2)C[C@H]1c1cc(C(F)F)nc2ncnn12 [Compound 180]	97%	174 nM	5130 nM	66%	100%	5.01 nM	5.01 nM	100%
C[C@@H]1CCN(C(=O)c2ccc(N)nc2)C[C@H]1c1cc(C(F)F)nc2ncnn12 [Compound 181]	94%	309 nM	> 10000 nM	52%	98%	4.57 nM	4.57 nM	98%
